Measured values: patent publication US4788209A, “Antifungal 2-anilinothiazolines” (Merrell Dow Pharmaceuticals Inc., priority 1987, dated 1988)
≈ marks a conversion by molar mass, not a printed value. Where two headings read alike, the source gives them in different places.

Experiments:
Candida albicans [1] = assay: Single dose therapy of rat vaginitis (vaginal candidiasis) induced by two challenge levels; type: in vivo; details: 0.2 ml of 10% solution intravaginally, 24 hours after treatment
Procedure: To compare the activity of N-(4-hexylphenyl)-4,5-dihydro-2-thiazolamine with that of the well established antifungal agents miconazole and Clotrimazole, vaginal candidiasis was induced in rats.
Groups of 6 female, ovariectomized rats, 180-200 gram weight, were pretreated for 2 successive days with 0.5 mg of progesterone and 0.5 mg of estradiol administered subcutaneously to induce oestrus. Forty-eight hours later rats were infected intravaginally on 2 successive days with Candida albicans cells. Challenge levels of 1×10^7 and 1×10^6 cells were employed. Seventy-two hours after infection, the rats were treated topically (intravaginally) with 0.2 ml of a 10% solution of test compound in a vehicle consisting of the following: cetyl alcohol, 3.5 gm; glycerol monostearate polyethyleneglycol 100, 4.0 gm; diglycol stearate, 3.0 gm; polyethyleneglycol 400, 18.75 gm; and purified water, 18.75 gm.
Twenty-four hours after treatment, vaginal washings were collected, diluted and mixed with Mycosel agar in petri dishes. The dishes were incubated for 48 hours and colonies were counted to determine the surviving number of yeast cells per vaginal washing.

Torulopsis glabrata = assay: Minimal inhibitory concentration against yeasts (Mycophil agar, Steers-Foltz apparatus); type: cell-based; details: Nakaseomyces glabratus; 24 hours at 37° C.
Procedure: (§1) The compounds of the present invention show activity against pathogenic fungi in vitro and in vivo. The activity of N-(4-hexylphenyl)-4,5-dihydro-2-thiazolamine against various yeast fungi commonly responsible for diseases of humans and animals is illustrated in Table I.
(§2) The compound was prepared in 20 ml aliquots of Mycophil agar at concentrations of 1.5 μM to 250 μM. The agar surfaces were innoculated with approximately 1×10^5 yeast cells/ml using a Steers-Foltz apparatus. The plates were incubated for 24 hours at 37° C. and examined for yeast growth. The minimal inhibitory concentration (MIC) is reported as the lowest concentration of compound that inhibited growth.

Candida pseudotropicalis = assay: as above; type: cell-based; details: Kluyveromyces marxianus; 24 hours at 37° C.
Procedure: as §1, §2

Candida tropicalis = assay: as above; type: cell-based; details: 24 hours at 37° C.
Procedure: as §1, §2

Candida parapsilosis = assay: as above; type: cell-based; details: Lodderomyces parapsilosis; 24 hours at 37° C.
Procedure: as §1, §2

Candida albicans [2] = assay: as above; type: cell-based; details: 24 hours at 37° C.
Procedure: as §1, §2

Compound | % Killed (Candida albicans [1]; challenge 1 × 10^6 cells) [%] | Cells/ml Lavage (Candida albicans [1]; challenge 1 × 10^6 cells) | % Killed (Candida albicans [1]; challenge 1 × 10^7 cells) [%] | Cells/ml Lavage (Candida albicans [1]; challenge 1 × 10^7 cells) | MIC (Torulopsis glabrata) [µg/mL] | MIC (Candida pseudotropicalis) [µg/mL] | MIC (Candida tropicalis; Candida tropicalis, strain 4, read-out: MIC) [µg/mL] | MIC (Candida tropicalis; strain 20) [µg/mL] | MIC (Candida parapsilosis) [µg/mL] | MIC (Candida albicans [2]; Candida albicans, strain 1, read-out: MIC) [µg/mL] | MIC (Candida albicans [2]; strain 8) [µg/mL] | MIC (Candida albicans [2]; strain 10) [µg/mL] | MIC (Candida albicans [2]; strain 14) [µg/mL] | MIC (Candida albicans [2]; strain 16) [µg/mL]
Clc1ccc(COC(Cn2ccnc2)c2ccc(Cl)cc2Cl)c(Cl)c1 (stereo not shown) [Miconazole, miconazole] | 88 | 7 × 10^3 Cells/ml | 90 | 2 × 10^4 Cells/ml |  |  |  |  |  |  |  |  |  | 
Clc1ccccc1C(c1ccccc1)(c1ccccc1)n1ccnc1 [Clotrimazole] | 83 | 1 × 10^4 Cells/ml | 75 | 5 × 10^4 Cells/ml |  |  |  |  |  |  |  |  |  | 
CCCCCCc1ccc(NC2=NCCS2)cc1 [N-(4-Hexylphenyl)-4,5-dihydro-2-thiazolamine] | 97 | 2 × 10^3 Cells/ml | 98 | 5 × 10^3 Cells/ml | 8 (≈ 30.5 µM) | 2 (≈ 7.62 µM) | 8 (≈ 30.5 µM) | 8 (≈ 30.5 µM) | 4 (≈ 15.2 µM) | 8 (≈ 30.5 µM) | 8 (≈ 30.5 µM) | 8 (≈ 30.5 µM) | 8 (≈ 30.5 µM) | 8 (≈ 30.5 µM)
